We go through 10 compounds from patent publication US9174985B2, “Salts of 7-(2,3-di-p-tolyl-7,8-dihydropyrido[2,3-b]pyrazin-5(6H)-yl)heptanoic acid as IP receptor agonists” (Novartis AG, priority 2012, dated 2015).

Where a name gives a salt, the structure may show the parent alone.

The subject of data set [1] is rats. The note with it: cited from earlier work.
A short description of data set [2]: solubility. In kind it is physicochemical. The note with it: free form, in water.
A short description of data set [3]: stability (physical stability, stability under light). In kind it is physicochemical. The note with it: for stability: free form, under light.
Data set [4] can be described thus: pH of a 1% solution/suspension in water. Particulars: 10 mg salt in 1 mL water, ultrasound about 5 min, stirred one hour at RT, batch B, 24.3-25.2° C. Format: physicochemical. How it is done:
A mixture of 10 mg salt and 1 mL water was treated about 5 min with ultrasound. Afterwards, the mixture was stirred for one hour at RT followed by pH measurement.

Data set [5] deals with human airway epithelial cells. The note with it: human airway epithelial cells in vitro; cited from earlier work.
The test system of data set [6] is former smokers. Particulars: oral; cited from earlier work.
For data set [7], the target named is β2-adrenoceptor (Homo sapiens, UniProt P07550). The note with it: cited from earlier work.
β2-adrenoceptor, sequence (P07550 whole entry, species assumed): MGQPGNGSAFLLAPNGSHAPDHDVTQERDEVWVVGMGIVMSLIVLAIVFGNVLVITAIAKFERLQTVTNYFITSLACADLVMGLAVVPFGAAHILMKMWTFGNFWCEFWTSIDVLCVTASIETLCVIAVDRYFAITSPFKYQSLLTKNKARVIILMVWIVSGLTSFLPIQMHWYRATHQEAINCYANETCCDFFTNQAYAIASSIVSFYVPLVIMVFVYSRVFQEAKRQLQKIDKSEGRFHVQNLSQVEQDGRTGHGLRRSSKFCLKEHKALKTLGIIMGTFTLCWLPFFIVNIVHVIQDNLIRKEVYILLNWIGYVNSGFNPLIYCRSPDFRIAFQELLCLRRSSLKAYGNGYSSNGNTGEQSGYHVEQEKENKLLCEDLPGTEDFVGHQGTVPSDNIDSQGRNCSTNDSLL
A short description of data set [8]: dissolution rate. In kind it is physicochemical. The note with it: compared to the free form.
Where [9] appears, read: listed as free form of 7-(2,3-di-p-tolyl-7,8-dihydropyrido[2,3-b]pyrazin-5(6H)-yl)heptanoi.

On to `CC#CCC(C)[C@H](O)/C=C/[C@@H]1[C@H]2c3cccc(CCCC(=O)O)c3O[C@H]2C[C@H]1O` (mixture of isomers) [Beraprost], for which, in data set [1], the “development of experimental cigarette smoke-induced emphysema” value is on record as “protected”.

As for `Cc1ccc(-c2nc3c(nc2-c2ccc(C)cc2)N(CCCCCCC(=O)O)CCC3)cc1` [7-(2,3-di-p-tolyl-7,8-dihydropyrido[2,3-b]pyrazin-5(6H)-yl)heptanoic acid], the values for the solubility entry in data set [2] and in data set [2] (setting [9]) were “poorly soluble in water” and “poor solubility”, respectively. For the same compound, the stability result was “low stability under light” in data set [3]; “poor solubility and stability” in data set [3] (setting [9]).

In the case of `Cc1ccc(-c2nc3c(nc2-c2ccc(C)cc2)N(CCCCCCC(=O)O)CCC3)cc1` [Example 1, 7-(2,3-di-p-tolyl-7,8-dihydropyrido[2,3-b]pyrazin-5(6H)-yl)heptanoate sulfate], the “pH of a 1% solution/suspension in water” value in data set [4] (sulfate) stood at 1.78. Further, the physical stability result in data set [3] is recorded as “good”.

Turning to `Cc1ccc(-c2nc3c(nc2-c2ccc(C)cc2)N(CCCCCCC(=O)O)CCC3)cc1` [Example 2, 7-(2,3-di-p-tolyl-7,8-dihydropyrido[2,3-b]pyrazin-5(6H)-yl)heptanoate xinafoate], the “pH of a 1% solution/suspension in water” value in data set [4] came out at 6.46. Besides, the photostability result in data set [3] was “good”.

Consider `Cc1ccc(-c2nc3c(nc2-c2ccc(C)cc2)N(CCCCCCC(=O)[O-])CCC3)cc1.[Na+]` [Example 3, 7-(2,3-di-p-tolyl-7,8-dihydropyrido[2,3-b]pyrazin-5(6H)-yl)heptanoate sodium], for which the physical stability result in data set [3] was “good”.

In the case of `Cc1ccc(-c2nc3c(nc2-c2ccc(C)cc2)N(CCCCCCC(=O)O)CCC3)cc1` [Example 4, 7-(2,3-di-p-tolyl-7,8-dihydropyrido[2,3-b]pyrazin-5(6H)-yl)heptanoate hydrochloride], the “pH of a 1% solution/suspension in water” value in data set [4] (hydrochloride) stood at 2.3.

In the case of `O=C(O)c1cccc(/C=C2/C[C@@H]3[C@@H](/C=C/[C@@H](O)C4CCCCC4)[C@H](O)C[C@@H]3O2)c1` [Taprostene], in data set [5], the “generation of the CD8+ T cell chemoattractants CXCL9 and CXCL10” value is “suppressed”.

As for `CC#CCC(C)[C@H](O)/C=C/[C@@H]1[C@H]2C/C(=C/CCCC(=O)O)C[C@H]2C[C@H]1O` (stereo partly shown) [iloprost], the endobronchial dysplasia entry in data set [6] is on record as “significantly improved”.

Take `CCc1cc2c(cc1CC)CC(NC[C@H](O)c1ccc(O)c3[nH]c(=O)ccc13)C2` [indacaterol, (R)-5-[2-(5,6-diethyl-indan-2-ylamino)-1-hydroxyethyl]-8-hydroxy-1H-quinolin-2-one]: in data set [7], the duration of action result was “over 24 hours” and the onset of action entry is given as “about 10 minutes”.

Take `CS(=O)(=O)O.Cc1ccc(-c2nc3c(nc2-c2ccc(C)cc2)N(CCCCCCC(=O)O)CCC3)cc1` [mesylate salt of 7-(2,3-di-p-tolyl-7,8-dihydropyrido[2,3-b]pyrazin-5(6H)-yl)heptanoic acid]: the dissolution rate result in data set [8] is reported as “significantly higher dissolution rate compared to the free form”.
